From US20150182525A1, “4-Amino-5-Fluoro-3-[6-(4-Methylpiperazin-1-YL)-1H-Benzimidazol-2-YL]-1H-Quinolin-2-one for use in the Treatment of Adenoid Cystic Carcinoma” (priority 2011, published 2015)
Entries after “also recorded” stand apart in the source; their conditions may differ.

What was measured:
[1] = test system: ACCx6 xenograft tumor line; test: ACCx6 adenoid cystic carcinoma xenograft efficacy study in nude mice; assay type: in vivo; conditions: 50 mg/kg p.o. qd x28; D28; P<0.001 as compared to 5/10 mg/kg docetaxel monotherapy
Description: The tumors are maintained by engraftment in nude mice. A 1 mm^3 fragment is implanted subcutaneously in the right flank of each test animal The tumors are measured with calipers twice weekly, and daily as the mean volume approached 100-150 mm^3 Seven days after tumor cell implantation, on D1 (day 1) of the study, the animals are sorted into groups of ten mice, with individual tumor sizes of 100-1250 mm^3 Tumor size, in mm^3, is calculated from
where “w” is the width and “1” is the length, in mm, of the tumor. Tumor weight is estimated with the assumption that 1 mg is equivalent to 1 mm^3 of tumor volume. For the efficacy study dovitinib and its vehicle are each administered orally (p.o.), once daily for twenty eight consecutive days (qd x28). […] The dosing volume, 10 mL/kg (0.2 mL20 g mouse), is scaled to the weight of each animal as determined on the day of dosing, except on weekends when the previous BW was carried forward.
The study begins on Day 1 (D1). Efficacy is determined from tumor volume changes up to D28 (day 28). Efficacy is determined on D28.
For the purpose of statistical and graphical analyses, ΔTV, the difference in tumor volume between D1 (the start of dosing) and the endpoint day, was determined for each animal For each treatment group, the response on the endpoint day was calculated by the following relation: […]

[2] = test system: ACCx5M1 xenograft tumor line; test: ACCx5M1 adenoid cystic carcinoma xenograft tumor growth delay study in nude mice; assay type: in vivo
Text: The data set is comprised of the first observation that exceeded the study endpoint volume and the three consecutive observations that immediately preceded the attainment of the endpoint volume. The calculated TTE is usually less than the day on which an animal is euthanized for tumor size.

[3] = test system: Stage IV adenoid cystic carcinoma; test: Dovitinib clinical trial, adenoid cystic carcinoma patient, radiologic imaging of target lesions; assay type: in vivo, human
Description: A patient with Stage IV adenoid cystic carcinoma was enrolled in a dovitinib clinical trial.
The patient was originally diagnosed 20 years ago with Stage II well differentiated ACC on the right cheek mucosa. Patient was previously treated using tumor resection of right cheek mucosa and right upper jaw and treated with radiation therapy, followed by chemotherapy with 5 FU (250 mg/m^2), ciplatin (40 mg/m^2), doxorubicin (20 or 27 mg/m^2) and cyclophosphamide (400 mg/m^2).
Recurrence of ACC occurred […], and patient was again treated using surgery of right cheek and submandibular Lymph nodes. Patient was subsequently treated with radiation therapy and followed by chemotherapy (TS-1, 120 mg/day).
Patient was enrolled into the dovitinib clinical trial and was treated with dovitinb 500 mg 5 days on 2 days off.

[4] = test system: primary ACC xenografts; test: Tumor growth inhibition in primary ACC xenograft models; assay type: in vivo, immunodeficient mice; conditions: FIGS. 6 and 7
Description: Once confirmed, established ACC xenograft models were developed until growth characteristic stabilized at which point viable stocks were collected and banked. According to one embodiment, the efficacy of dovitinib was evaluated in inhibiting tumor growth in certain ACC xenografts.

[5] = 500 mg 5 days on 2 days off, after 1 cycle of treatment (4 weeks), one patient

CN1CCN(c2ccc3nc(-c4c(N)c5c(F)cccc5[nH]c4=O)[nH]c3c2)CC1 [dovitinib, 4-amino-5-fluoro-3-[6-(4-methylpiperazin-1-yl)-1H-benzimidazol-2-yl]-1H-quinolin-2-one]
median growth inhibition (tumor volume) [1]: significant median growth inhibition | survival extension ([2]; 50 mg/kg monotherapy, Logrank test, P<0.05): significant | % TGD (tumor growth delay) ([2]; 50 mg/kg p.o. qd x64 monotherapy, study endpoint D64 or endpoint tumor volume): 49% | reduction of total diameter of target lesions [3, 5]: 26% | reduction of tumor diameter on the right facial target lesion [3, 5]: 70% | reducing ACC tumor growth in a human clinical trial ([3]; after 1 cycle of treatment): surprisingly effective in reducing ACC tumor growth | inhibiting tumor growth in primary ACC xenografts [4]: effective for inhibiting tumor growth; also recorded: surprisingly effective in inhibiting tumor
